From ChEMBL document CHEMBL4507262, “Data for DCP probe A-1596586” (2021)

Assays:
[1] = target: Activin receptor type-1B (Homo sapiens) (UniProt P36896); conditions: Compound concentration 1000.0 nM
[2] = target: Peripheral plasma membrane protein CASK (Homo sapiens) (UniProt O14936); conditions: Compound concentration 1000.0 nM
[3] = target: Activin receptor type-1-like (Homo sapiens) (UniProt P37023); conditions: Compound concentration 1000.0 nM
[4] = target: Serine/threonine-protein kinase WNK4 (Homo sapiens) (UniProt Q96J92); conditions: Compound concentration 1000.0 nM
[5] = target: Calcium/calmodulin-dependent protein kinase type II subunit gamma (Homo sapiens) (UniProt Q13555); conditions: Compound concentration 1000.0 nM
[6] = target: Inhibitor of nuclear factor kappa-B kinase subunit alpha (Homo sapiens) (UniProt O15111); conditions: Compound concentration 1000.0 nM
Chain of Inhibitor of nuclear factor kappa-B kinase subunit alpha (Homo sapiens) (O15111 whole entry): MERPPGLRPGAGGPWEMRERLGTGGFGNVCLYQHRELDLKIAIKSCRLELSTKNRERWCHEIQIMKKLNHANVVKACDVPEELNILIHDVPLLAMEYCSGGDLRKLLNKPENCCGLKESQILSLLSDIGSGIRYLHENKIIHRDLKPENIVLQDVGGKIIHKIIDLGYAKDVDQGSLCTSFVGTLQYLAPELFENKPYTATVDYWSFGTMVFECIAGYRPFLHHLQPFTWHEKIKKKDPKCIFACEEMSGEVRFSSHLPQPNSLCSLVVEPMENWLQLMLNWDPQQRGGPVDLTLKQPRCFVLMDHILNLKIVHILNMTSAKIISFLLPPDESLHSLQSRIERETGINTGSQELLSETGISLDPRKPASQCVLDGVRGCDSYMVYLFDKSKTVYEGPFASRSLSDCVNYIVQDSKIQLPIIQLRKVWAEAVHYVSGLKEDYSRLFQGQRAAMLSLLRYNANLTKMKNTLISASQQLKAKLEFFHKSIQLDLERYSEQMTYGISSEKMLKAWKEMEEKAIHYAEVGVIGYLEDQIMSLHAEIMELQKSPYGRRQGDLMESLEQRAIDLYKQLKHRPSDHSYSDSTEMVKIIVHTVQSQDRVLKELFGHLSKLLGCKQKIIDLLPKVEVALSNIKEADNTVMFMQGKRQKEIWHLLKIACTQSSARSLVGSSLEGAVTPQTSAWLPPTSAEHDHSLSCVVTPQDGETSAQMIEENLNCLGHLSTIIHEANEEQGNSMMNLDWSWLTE

[7] = target: Serine/threonine-protein kinase BRSK1 (Homo sapiens) (UniProt Q8TDC3); conditions: Compound concentration 1000.0 nM
[8] = test system: Tyrosine-protein kinase ABL1 (Homo sapiens), P00519 [T315I]; conditions: Compound concentration 1000.0 nM
[9] = target: Vasoactive intestinal polypeptide receptor 1 (Homo sapiens) (UniProt P32241); assay: VPAC1 (VIP1) (h) Eurofins-Cerep binding assay; conditions: filed as agonist, Compound concentration 10.0 uM
[10] = target: Cyclin-dependent kinase 4 (Homo sapiens) (UniProt P11802); conditions: Compound concentration 1000.0 nM
Chain of Cyclin-dependent kinase 4 (Homo sapiens) (P11802 whole entry): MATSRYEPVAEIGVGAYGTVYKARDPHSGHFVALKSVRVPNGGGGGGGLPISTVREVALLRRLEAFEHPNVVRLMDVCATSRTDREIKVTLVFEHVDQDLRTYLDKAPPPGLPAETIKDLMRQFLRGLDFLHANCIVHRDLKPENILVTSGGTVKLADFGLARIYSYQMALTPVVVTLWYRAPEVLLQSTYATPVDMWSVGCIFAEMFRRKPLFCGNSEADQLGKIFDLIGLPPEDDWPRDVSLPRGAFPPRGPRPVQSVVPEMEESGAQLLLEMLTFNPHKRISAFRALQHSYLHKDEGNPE

[11] = species on record: Rattus norvegicus; conditions: Compound concentration 10.0 uM
[12] = target: Mitogen-activated protein kinase kinase kinase 9 (Homo sapiens) (UniProt P80192); conditions: Compound concentration 1000.0 nM
[13] = target: Serine/threonine-protein kinase B-raf (Homo sapiens) (UniProt P15056); conditions: Compound concentration 1000.0 nM
[14] = target: Wee1-like protein kinase 2 (Homo sapiens) (UniProt P0C1S8); conditions: Compound concentration 1000.0 nM
Chain of Wee1-like protein kinase 2 (Homo sapiens) (P0C1S8 whole entry, looked up): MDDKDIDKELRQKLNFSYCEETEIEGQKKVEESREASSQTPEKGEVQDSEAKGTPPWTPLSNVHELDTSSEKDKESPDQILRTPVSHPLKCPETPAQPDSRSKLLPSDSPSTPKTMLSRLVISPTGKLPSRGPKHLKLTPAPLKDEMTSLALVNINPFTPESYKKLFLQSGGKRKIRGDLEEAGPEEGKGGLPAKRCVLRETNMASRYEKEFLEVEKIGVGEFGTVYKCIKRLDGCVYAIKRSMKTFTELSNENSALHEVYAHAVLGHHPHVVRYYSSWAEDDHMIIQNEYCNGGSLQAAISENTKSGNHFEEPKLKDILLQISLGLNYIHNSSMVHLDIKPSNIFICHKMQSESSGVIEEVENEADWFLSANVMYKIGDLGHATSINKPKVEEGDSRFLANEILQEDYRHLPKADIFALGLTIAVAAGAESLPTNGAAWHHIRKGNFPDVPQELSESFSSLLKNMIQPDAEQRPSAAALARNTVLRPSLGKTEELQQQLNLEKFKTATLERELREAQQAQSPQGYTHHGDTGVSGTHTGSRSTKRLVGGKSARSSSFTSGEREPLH

[15] = target: Serine/threonine-protein kinase SIK1 (Homo sapiens) (UniProt P57059); conditions: Compound concentration 1000.0 nM
Chain of Serine/threonine-protein kinase SIK1 (Homo sapiens) (P57059 whole entry): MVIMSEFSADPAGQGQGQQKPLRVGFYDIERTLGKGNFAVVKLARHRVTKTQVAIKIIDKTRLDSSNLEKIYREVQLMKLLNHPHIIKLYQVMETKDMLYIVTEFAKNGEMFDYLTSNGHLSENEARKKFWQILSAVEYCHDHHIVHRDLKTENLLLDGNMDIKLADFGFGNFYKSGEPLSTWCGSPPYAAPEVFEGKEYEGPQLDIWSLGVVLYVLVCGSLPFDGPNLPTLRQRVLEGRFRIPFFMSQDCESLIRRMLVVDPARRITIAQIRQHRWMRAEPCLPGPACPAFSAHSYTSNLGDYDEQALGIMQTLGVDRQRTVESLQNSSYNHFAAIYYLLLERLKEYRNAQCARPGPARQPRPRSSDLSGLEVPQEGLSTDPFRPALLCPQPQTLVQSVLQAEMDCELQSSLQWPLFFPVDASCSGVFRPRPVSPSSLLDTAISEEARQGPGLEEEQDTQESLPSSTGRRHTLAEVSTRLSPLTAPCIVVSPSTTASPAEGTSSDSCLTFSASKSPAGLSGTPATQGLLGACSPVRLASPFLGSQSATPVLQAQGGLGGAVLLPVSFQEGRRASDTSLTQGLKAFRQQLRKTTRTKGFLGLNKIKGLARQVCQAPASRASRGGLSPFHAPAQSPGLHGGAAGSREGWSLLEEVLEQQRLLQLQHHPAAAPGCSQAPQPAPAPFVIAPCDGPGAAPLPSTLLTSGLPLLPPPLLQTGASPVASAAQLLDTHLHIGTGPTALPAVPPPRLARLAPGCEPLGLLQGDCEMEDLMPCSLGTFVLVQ

[16] = target: Cannabinoid receptor 2 (Homo sapiens) (UniProt P34972); assay: CB2 (h) Eurofins-Cerep binding assay; set-up: ligand concentration 0.8 nM; conditions: filed as agonist, Compound concentration 10.0 uM
[17] = target: Serine/threonine-protein kinase Sgk1 (Homo sapiens) (UniProt O00141); conditions: Compound concentration 1000.0 nM
Chain of Serine/threonine-protein kinase Sgk1 (Homo sapiens) (O00141 whole entry): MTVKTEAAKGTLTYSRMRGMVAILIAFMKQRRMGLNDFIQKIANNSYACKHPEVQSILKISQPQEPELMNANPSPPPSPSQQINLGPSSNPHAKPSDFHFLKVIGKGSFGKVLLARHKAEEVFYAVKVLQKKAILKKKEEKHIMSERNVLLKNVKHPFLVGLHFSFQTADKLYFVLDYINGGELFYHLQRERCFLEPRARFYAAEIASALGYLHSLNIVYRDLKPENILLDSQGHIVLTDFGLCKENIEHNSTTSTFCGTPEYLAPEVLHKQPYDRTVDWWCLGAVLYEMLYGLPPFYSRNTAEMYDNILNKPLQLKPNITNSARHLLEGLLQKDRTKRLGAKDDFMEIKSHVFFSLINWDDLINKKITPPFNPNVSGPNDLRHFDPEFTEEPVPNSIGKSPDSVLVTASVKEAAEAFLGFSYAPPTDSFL

[18] = target: Dual specificity mitogen-activated protein kinase kinase 2 (Homo sapiens) (UniProt P36507); conditions: Compound concentration 1000.0 nM
[19] = target: Serine/threonine-protein kinase PAK 6 (Homo sapiens) (UniProt Q9NQU5); conditions: Compound concentration 1000.0 nM
[20] = target: Melatonin receptor type 1B (Homo sapiens) (UniProt P49286); assay: MT2 (ML1B) (h) Eurofins-Cerep binding assay; set-up: ligand concentration 0.05 nM; conditions: filed as agonist, Compound concentration 10.0 uM
[21] = target: Beta-1 adrenergic receptor (Homo sapiens) (UniProt P08588); assay: Beta1 (h) Eurofins-Cerep binding assay; set-up: ligand concentration 0.3 nM; conditions: filed as agonist, Compound concentration 10.0 uM
[22] = target: Serine/threonine-protein kinase MARK2 (Homo sapiens) (UniProt Q7KZI7); conditions: Compound concentration 1000.0 nM
Chain of Serine/threonine-protein kinase MARK2 (Homo sapiens) (Q7KZI7 whole entry): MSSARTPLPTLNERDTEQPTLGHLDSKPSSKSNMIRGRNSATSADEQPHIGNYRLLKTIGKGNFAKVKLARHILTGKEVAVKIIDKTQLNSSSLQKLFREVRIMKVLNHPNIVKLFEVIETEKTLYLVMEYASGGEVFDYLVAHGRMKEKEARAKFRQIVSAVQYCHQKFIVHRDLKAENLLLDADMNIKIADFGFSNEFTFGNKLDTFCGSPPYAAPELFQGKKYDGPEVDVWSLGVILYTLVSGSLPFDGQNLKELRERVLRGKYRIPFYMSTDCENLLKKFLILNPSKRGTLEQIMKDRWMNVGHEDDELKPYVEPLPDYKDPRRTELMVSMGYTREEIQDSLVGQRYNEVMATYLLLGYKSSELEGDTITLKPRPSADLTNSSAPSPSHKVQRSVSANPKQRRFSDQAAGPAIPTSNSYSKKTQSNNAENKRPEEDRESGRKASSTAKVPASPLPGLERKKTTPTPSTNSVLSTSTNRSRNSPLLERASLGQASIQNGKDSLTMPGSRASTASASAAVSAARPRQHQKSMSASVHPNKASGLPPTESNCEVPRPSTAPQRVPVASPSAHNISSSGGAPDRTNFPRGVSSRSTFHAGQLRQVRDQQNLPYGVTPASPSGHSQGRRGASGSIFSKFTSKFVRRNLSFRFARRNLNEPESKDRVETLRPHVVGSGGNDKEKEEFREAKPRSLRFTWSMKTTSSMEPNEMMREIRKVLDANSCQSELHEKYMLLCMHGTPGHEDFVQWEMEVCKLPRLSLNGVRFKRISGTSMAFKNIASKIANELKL

[23] = target: Tyrosine-protein kinase Tec (Homo sapiens) (UniProt P42680); conditions: Compound concentration 1000.0 nM
[24] = target: Tumor necrosis factor (Homo sapiens) (UniProt P01375); assay: TNF-alpha (h) Eurofins-Cerep binding assay; set-up: ligand concentration 0.1 nM; conditions: filed as agonist, Compound concentration 10.0 uM
[25] = target: ALK tyrosine kinase receptor (Homo sapiens) (UniProt Q9UM73); conditions: Compound concentration 1000.0 nM
[26] = target: Cyclin-dependent kinase 2 homolog (Plasmodium falciparum (isolate 3D7)) (UniProt P61075); conditions: Compound concentration 1000.0 nM
Chain of Cyclin-dependent kinase 2 homolog (Plasmodium falciparum (isolate 3D7)) (P61075 whole entry, canonical isoform): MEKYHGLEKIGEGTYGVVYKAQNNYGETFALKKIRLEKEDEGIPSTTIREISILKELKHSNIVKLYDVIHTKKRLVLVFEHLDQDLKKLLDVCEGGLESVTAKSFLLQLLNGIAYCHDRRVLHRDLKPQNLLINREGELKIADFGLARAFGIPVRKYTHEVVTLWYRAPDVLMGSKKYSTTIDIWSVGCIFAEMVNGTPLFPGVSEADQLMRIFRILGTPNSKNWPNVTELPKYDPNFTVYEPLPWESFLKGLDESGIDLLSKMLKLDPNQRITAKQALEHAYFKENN

[27] = test system: Phosphatidylinositol 4,5-bisphosphate 3-kinase catalytic subunit alpha isoform (Homo sapiens), P42336 [E545K]; conditions: Compound concentration 1000.0 nM
[28] = target: G protein-coupled receptor kinase 3 (Homo sapiens) (UniProt P35626); conditions: Compound concentration 1000.0 nM
[29] = target: 5-hydroxytryptamine receptor 1B (Homo sapiens) (UniProt P28222); conditions: Compound concentration 10.0 uM
[30] = target: Cyclin-dependent kinase-like 1 (Homo sapiens) (UniProt Q00532); conditions: Compound concentration 1000.0 nM
Chain of Cyclin-dependent kinase-like 1 (Homo sapiens) (Q00532 whole entry): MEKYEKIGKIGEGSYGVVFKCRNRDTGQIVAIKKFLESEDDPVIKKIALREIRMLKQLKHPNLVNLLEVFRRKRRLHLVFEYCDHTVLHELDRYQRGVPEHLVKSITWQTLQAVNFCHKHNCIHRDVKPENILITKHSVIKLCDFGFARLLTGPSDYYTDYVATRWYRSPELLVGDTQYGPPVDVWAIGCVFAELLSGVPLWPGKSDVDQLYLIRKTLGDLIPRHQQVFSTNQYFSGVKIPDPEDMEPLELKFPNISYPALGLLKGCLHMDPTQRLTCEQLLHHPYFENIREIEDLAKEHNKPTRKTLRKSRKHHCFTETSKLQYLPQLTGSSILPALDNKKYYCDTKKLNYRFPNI

[31] = target: voltage-gated Na+ channel (site 2) (Rattus norvegicus, UniProt F1LQQ7+O08562+O88420+O88457+P04774+P04775+P08104+P15389+P15390+Q62968); assay: Na+ channel (site 2) Eurofins-Cerep binding assay; type: protein assay; set-up: incubation time 60 min, incubation temperature 37°C, ligand concentration 10 nM; conditions: rat cerebral cortex, probe [3H]batrachotoxin (10 nM), compound concentration 10 uM, read-out: % Inhibition of Control Specific Binding (Mean n=2)
[32] = target: Receptor-type tyrosine-protein kinase FLT3 (Homo sapiens) (UniProt P36888); conditions: Compound concentration 1000.0 nM
[33] = target: Serine/threonine-protein kinase LATS1 (Homo sapiens) (UniProt O95835); conditions: Compound concentration 1000.0 nM
[34] = target: Casein kinase I isoform gamma-1 (Homo sapiens) (UniProt Q9HCP0); conditions: Compound concentration 1000.0 nM
[35] = target: T1, Alpha-1B adrenergic receptor (Homo sapiens) (UniProt P35368); assay: Alpha1B (h) Eurofins-Cerep binding assay; conditions: filed as antagonist, Compound concentration 10.0 uM
T1 sequence (whole entry): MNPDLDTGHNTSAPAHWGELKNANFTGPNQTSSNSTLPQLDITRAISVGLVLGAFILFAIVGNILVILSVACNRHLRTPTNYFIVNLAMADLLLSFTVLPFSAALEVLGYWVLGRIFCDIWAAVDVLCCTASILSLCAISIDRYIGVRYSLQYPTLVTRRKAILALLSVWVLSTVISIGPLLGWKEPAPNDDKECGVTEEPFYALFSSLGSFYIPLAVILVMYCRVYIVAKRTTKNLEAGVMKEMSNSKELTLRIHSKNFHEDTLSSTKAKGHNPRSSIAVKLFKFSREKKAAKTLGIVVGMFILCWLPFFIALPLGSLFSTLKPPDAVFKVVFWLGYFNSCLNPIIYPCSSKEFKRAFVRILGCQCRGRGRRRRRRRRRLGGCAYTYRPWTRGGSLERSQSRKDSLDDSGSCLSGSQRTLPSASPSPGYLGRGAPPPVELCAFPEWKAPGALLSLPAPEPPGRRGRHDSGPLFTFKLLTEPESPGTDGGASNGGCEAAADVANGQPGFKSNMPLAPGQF

[36] = target: Mitogen-activated protein kinase kinase kinase 13 (Homo sapiens) (UniProt O43283); conditions: Compound concentration 1000.0 nM

Chain of Activin receptor type-1B (Homo sapiens) (P36896 whole entry): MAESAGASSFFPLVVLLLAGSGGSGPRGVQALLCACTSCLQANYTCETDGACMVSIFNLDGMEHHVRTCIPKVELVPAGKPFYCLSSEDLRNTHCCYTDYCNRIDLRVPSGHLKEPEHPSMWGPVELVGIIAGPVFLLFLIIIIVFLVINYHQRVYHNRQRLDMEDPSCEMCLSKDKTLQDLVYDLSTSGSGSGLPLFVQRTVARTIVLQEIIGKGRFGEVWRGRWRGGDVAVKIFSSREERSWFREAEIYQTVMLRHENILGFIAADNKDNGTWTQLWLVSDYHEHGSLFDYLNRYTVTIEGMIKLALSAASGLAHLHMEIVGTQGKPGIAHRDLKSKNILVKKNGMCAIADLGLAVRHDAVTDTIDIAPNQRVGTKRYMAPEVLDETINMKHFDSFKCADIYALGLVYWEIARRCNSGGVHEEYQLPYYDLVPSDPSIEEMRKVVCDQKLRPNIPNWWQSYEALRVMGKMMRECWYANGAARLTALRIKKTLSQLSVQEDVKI

Structure (SMILES) | residual activity [1] [%] | residual activity [2] [%] | residual activity [3] [%] | residual activity [4] [%] | residual activity [5] [%] | residual activity [6] [%] | residual activity [7] [%] | residual activity [8] [%] | % Inhibition of Control Specific Binding (Mean n=2) [9] [%] | residual activity [10] [%] | inhibition [11] [%] | residual activity [12] [%] | residual activity [13] [%] | residual activity [14] [%] | residual activity [15] [%] | % Inhibition of Control Specific Binding (Mean n=2) [16] [%] | residual activity [17] [%] | residual activity [18] [%] | residual activity [19] [%] | % Inhibition of Control Specific Binding (Mean n=2) [20] [%] | other results
COc1ccc2c(c1)O[C@@H](c1ccc(OC)c(OC)c1)C[C@H]2NC(=O)C1(c2ccc3c(c2)OC(F)(F)O3)CC1 [A-1596586] | 67 | 100 | 97 | 85 | 96 | 95 | 99 | 75 | 10.4 | 91 | 90.5 | 100 | 100 | 100 | 100 | 30.2 | 85 | 87 | 79 | 41 | % Inhibition of Control Specific Binding (Mean n=2) [21]: 3.1%; residual activity [22]: 92%; residual activity [23]: 89%; % Inhibition of Control Specific Binding (Mean n=2) [24]: -9.2%; residual activity [25]: 100%; residual activity [26]: 84%; residual activity [27]: 77%; residual activity [28]: 75%; inhibition [29]: -0.84%; residual activity [30]: 82%; inhibition at 60 min, 10 µM [31]: 35%; residual activity [32]: 100%; residual activity [33]: 92%; residual activity [34]: 99%; % Inhibition of Control Specific Binding (Mean n=2) [35]: 4.8%; residual activity [36]: 67%
COc1ccc2c(c1)O[C@H](c1ccc(OC)c(OC)c1)C[C@@H]2NC(=O)C1(c2ccc3c(c2)OC(F)(F)O3)CC1 [A-1596584] | 82 | 85 | 90 | 83 | 100 | 89 | 100 | 93 | 5 | 96 | 66.6 | 93 | 92 | 100 | 100 | 73.7 | 100 | 100 | 100 | 38 | % Inhibition of Control Specific Binding (Mean n=2) [21]: -2.1%; residual activity [22]: 100%; residual activity [23]: 100%; % Inhibition of Control Specific Binding (Mean n=2) [24]: -3.3%; residual activity [25]: 100%; residual activity [26]: 92%; residual activity [27]: 91%; residual activity [28]: 100%; inhibition [29]: -1%; residual activity [30]: 83%; inhibition at 60 min, 10 µM [31]: 47.3%; residual activity [32]: 100%; residual activity [33]: 65%; residual activity [34]: 100%; % Inhibition of Control Specific Binding (Mean n=2) [35]: 17.4%; residual activity [36]: 91%
